Assay results taken from patent US20210023089A1, “Compositions Useful for Treating Herpes Simplex Keratitis, and Methods Using Same” (priority 2013, published 2021).

Legend:
Type in all cases: cell-based, HSV-1 (KOS strain)
HSV-1 [1] = test: Ex vivo HSV-1 infection of explanted human corneas, qPCR of viral genome; conditions: 48 hpi; for viral genome replication in corneal epithelium (qPCR): 1×10^4 PFU/cornea
Procedure: (§1) Human corneas were obtained from the Lions Eye Bank of Delaware Valley. Rabbit corneas were excised from intact fresh eyeballs of young (8-12 weeks) albino rabbits (Pel-Freez Biologicals, Rogers, Ark.). Protocol (Alekseev et al., 2012, J Vis Exp 69:e3631) for ex vivo corneal culture, infection, and treatment was followed closely. Briefly, corneoscleral buttons were excised and rinsed in PBS containing 200 U/mL penicillin and 200 μg/mL streptomycin. The endothelial concavity was filled with culture medium containing 1% low melting temperature agarose. The corneas were cultured epithelial side up in MEM medium supplemented with nonessential amino acids (1×), 2 mM […], 200 U/mL penicillin, and 200 μg/mL streptomycin. The next day, they were infected with 1×10^4 plaque forming units (PFU)/cornea of strain KOS HSV-1 for 1 hour, rinsed, and overlaid with fresh medium. Drug treatments were administered at the same concentrations as for cultured cells. For KU-55933 bioavailability assessment, corneas were treated with bleomycin (200 μg/mL) for 1 hour. The epithelial cell layer was collected by scraping to isolate DNA or protein. For immunohistochemistry studies, corneas were flash frozen in optimal cutting temperature (OCT) compound, sectioned, and immunostained using standard protocols. Treatment toxicity was assessed by briefly staining the cornea with fluorescein (1% wt/vol in PBS) and imaging the epithelial defects with 464-nm wavelength blue light (LDP LLC, Carlstadt, N.J.).
(§2) Viral genome replication and transcription were measured by quantitative PCR (qPCR). Total DNA and RNA from infected cells were isolated using the DNeasy Blood & Tissue Kit and the RNeasy Mini Kit, respectively (QIAGEN, Hilden, Germany). RNA was converted to cDNA using qScript (Quanta BioSciences, Gaithersburg, Md.). Real-time qPCR was performed with SYBR Green (Bio-Rad, Hercules, Calif.). Target primers for UL30 (DNA polymerase catalytic subunit) and reference primers for glyceraldehyde 3-phosphate dehydrogenase (GAPDH) were used to measure genome replication. Transcription of the three gene families was measured with primers for RL2 (ICPO), UL30 (DNA polymerase catalytic subunit), and UL44 (gC), with reference primers for the 18S ribosomal RNA (rRNA).
Human corneas were obtained from the Lions Eye Bank of Delaware Valley. Rabbit corneas were excised from intact fresh eyeballs of young (8-12 weeks) albino rabbits (Pel-Freez Biologicals, Rogers, Ark.). […]
(§3) Total DNA from infected cells and corneas was isolated using the DNeasy Blood & Tissue Kit (QIAGEN, Hilden, Germany). Real time quantitative PCR was performed with SYBR Green (Bio-Rad, Hercules, Calif.). […]

HSV-1 [2] = test: Plaque assay of supernatants from HSV-1 infected hTCEpi cells
Procedure: All cells were cultured at 37° C. and 5% CO2 and supplemented with 100 U/mL penicillin and […]. Human corneal epithelial cells immortalized with hTERT (hTCEpi; Robertson, et al., 2005, Invest Ophthalmol Vis Sci. 46:470-478) were grown in complete keratinocyte growth medium 2 (KGM-2; Lonza, Basel, Switzerland). African green monkey kidney fibroblasts (CV-1; American Type Culture Collection, Manassas, Va.) were grown in Dulbecco's modified Eagle's medium (DMEM; Cellgro, Manassas, Va.) supplemented with 10% FBS. The KOS strain of HSV-1 was used in the in vitro and ex vivo infections, whereas McKrae strain was used for in vivo mouse experiments, and TK mutant dlsptk strain (Coen et al., 1989, Proc Natl Acad Sci USA 86:4736-4740) was used in the drug resistance experiments. All viral stocks were titered on CV-1 monolayers.
The following strains of HSV-1 were used: KOS, ICPO-null, HFEM, and tsB7. Subconfluent monolayers of cells were grown in six-well plates. Drug treatments were administered 45 minutes prior to infection and continued for the entire duration of each experiment. Unless indicated otherwise, KU-55933 (Batch No. 5, 99.7% purity; Tocris Bioscience, Bristol, UK) was used at 10 μM final concentration, phosphonoacetic acid (PAA) at 400 μg/mL (Sigma-Aldrich, St. Louis, Mo.), and acyclovir at 50 μg/mL (Sigma-Aldrich). […]

HSV-1 [3] = test: Ex vivo HSV-1 infection of explanted rabbit corneas, qPCR of viral genome; conditions: for viral genome replication in corneal epithelium (qPCR): 1×10^4 PFU/cornea, 10 μM
Procedure: as §1, §2
Human corneas were obtained from the Lions Eye Bank of Delaware Valley. Rabbit corneas were excised from intact fresh eyeballs of young (8-12 weeks) albino rabbits (Pel-Freez Biologicals, Rogers, Ark.). The protocol (Alekseev et al., 2012, J. Vis. Exp. e3631) for ex vivo corneal culture and infection was followed, and treatment was administered immediately after infection. Briefly, corneoscleral buttons were excised and rinsed in PBS containing 200 U/ml penicillin and 200 μg/ml streptomycin. The endothelial concavity was filled with culture medium containing 1% low melting temperature agarose. The corneas were cultured epithelial side up in MEM medium supplemented with non-essential amino acids (1×), 2 mM […], 200 U/ml penicillin, and 200 μg/ml streptomycin. The next day, they were infected with 1×10^4 PFU/cornea of strain KOS HSV-1 for 1 hour, rinsed, and overlaid with fresh medium. Drug treatments were administered at the same concentrations as for cultured cells. […]
as §3

Row | SMILES | difference in viral genome levels versus positive controls treated with PAA (HSV-1 [1]; human corneas, 10 μM, PAA 400 μg/ml) | viral genome replication in corneal epithelium (qPCR) (HSV-1 [1]; human corneas, 10 μM) | generation of infectious viral particles (plaque assay) (HSV-1 [2]; MOI 0.1, 10 μM, vs controls) | HSV-1 inhibition in rabbit compared with human corneas (HSV-1 [3]; Chk2 inhibitor II 10 μM, 48 hpi) | HSV-1 growth following the removal of inhibitor (HSV-1 [3]; rabbit corneas, 10 μM for 48 hours, then inhibitor-free medium) | time to which the effect of inhibition was maintained (HSV-1 [3]; rabbit corneas, 10 μM for 48 hours, then inhibitor-free medium for 48 hours, latest time point tested) | viral genome replication in corneal epithelium (qPCR) (HSV-1 [3]; rabbit corneas, 48 hpi) | effect on viral genome replication, human compared with rabbit corneas (HSV-1 [1]; KU-55933 10 μM) | inhibition of infectious particle production (plaque assay) (HSV-1 [2]; MOI 0.1, KU-55933 10 μM, 20 hpi)
1 | NC(=O)c1ccc2[nH]c(-c3ccc(Oc4ccc(Cl)cc4)cc3)nc2c1 [Chk2 inhibitor II, 2-(4-(4-chlorophenoxy)phenyl)-1H-benzimidazole-5-carboxamide] | no statistical significance | did not support productive infection | reduction | slightly less potent | resume normal growth | ≥ 96 hpi | did not support productive infection |  | 
2 | O=c1cc(-c2cccc3c2Sc2ccccc2S3)oc(N2CCOCC2)c1 [KU-55933, 2-(morpholin-4-yl)-6-(thianthren-1-yl)-pyran-4-one] |  | greatly reduced |  |  |  |  | greatly reduced | more pronounced in human corneas | greater than 10,000 fold
